Assay results as given in patent US8114862B2, “TGR5 modulators and methods of use thereof” (Intercept Pharmaceuticals, Inc., priority 2008, dated 2012).

Tests used:
[1] = Stability in human liver S9 fraction
[2] = Stability in human liver microsomes; conditions: microsomes

## C[C@]12CC[C@H]3[C@@H](CCC4=CC(=O)CC[C@@]43C)[C@@H]1CC[C@@H]2O [Testosterone, reference compound]
[1]
  half-life: 39 min
[2]
  half-life: 8 to 20 min
